Earlier results on one compound are cited in patent publication US20170172905A1, “AGENT FOR TEMPORARILY RESHAPING KERATIN-CONTAINING FIBERS COMPRISING PRESERVATIVE” (Henkel AG & Co. KGaA, priority 2015, published 2017).

With `CCCCC(CC)CN1CN(CC(CC)CCCC)CC(C)(N)C1` (stereo not shown) [hexetidine, 5-amino-1,3-bis(2-ethylhexal)hexahydro-5-methylpyrimidine], the logP value is 5.25.
